Values quoted from earlier work as cited in patent publication EP4732833A1, “ROPIVACAINE MICROSPHERE AND PREPARATION METHOD THEREFOR” (Bostal Drug Delivery Co., Ltd., priority 2023, dated 2025).

Conditions: background statement

In the case of `CCCN1CCCC[C@H]1C(=O)Nc1c(C)cccc1C` [Ropivacaine, (S)-N-(2,6-dimethylphenyl)-1-propylpiperidine-2-carboxamide], the plasma half-life is listed as 1.8 h.
